Assay results: patent publication US7723329B2, “Substituted-3-sulfonylindazole derivatives as 5-hydroxytryptamine-6 ligands” (Wyeth LLC, priority 2005, dated 2010)
Structures can show the parent of a compound that is named as a salt.

Columns and labels:
[1] = target: T1, human cloned 5-HT6 receptors (Homo sapiens, UniProt P50406); assay: 5-HT6 binding affinity, [3H]-LSD displacement; conditions: membranes of Hela cells expressing human cloned 5-HT6 receptors; [3H]-LSD 3.0 nM; 120 minutes at room temperature
T1 construct: expressed in transfected cells; host or cells: HeLa cells
T1 sequence (P50406 whole entry): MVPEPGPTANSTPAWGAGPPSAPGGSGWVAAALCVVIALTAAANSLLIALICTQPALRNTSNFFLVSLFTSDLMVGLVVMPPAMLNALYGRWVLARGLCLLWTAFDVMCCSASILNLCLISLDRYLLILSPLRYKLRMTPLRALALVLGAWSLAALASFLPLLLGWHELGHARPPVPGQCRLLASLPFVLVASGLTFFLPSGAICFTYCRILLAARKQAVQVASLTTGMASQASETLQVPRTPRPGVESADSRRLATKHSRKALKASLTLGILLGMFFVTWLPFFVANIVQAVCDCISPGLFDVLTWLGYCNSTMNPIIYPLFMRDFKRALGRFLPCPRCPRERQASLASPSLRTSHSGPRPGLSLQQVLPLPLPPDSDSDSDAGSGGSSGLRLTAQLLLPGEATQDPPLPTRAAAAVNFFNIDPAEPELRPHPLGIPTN

melting point [°C]	Ki [1] [nM]	SMILES
195 to 198	0.01 to 10	CCN(C)CCCCc1ccc2[nH]nc(S(=O)(=O)c3cccc4ccccc34)c2c1 [Example 193]
205 to 207	0.01 to 10	CCN(C)CCCc1ccc2[nH]nc(S(=O)(=O)c3cccc4ccccc34)c2c1 [Example 186]
157 to 160	0.01 to 10	Cl.NCCc1cccc2c(S(=O)(=O)c3ccccc3)n[nH]c12 [Example 174, {2-[3-(Phenylsulfonyl)-1H-indazol-7-yl]ethyl}amine Hydrochloride]
145 to 150	0.01 to 10	CC(C)NCCCCc1ccc2[nH]nc(S(=O)(=O)c3cccc4ccccc34)c2c1 [Example 192]
232 to 233	0.01 to 10	CN(C)CCCCc1ccc2[nH]nc(S(=O)(=O)c3cccc4ccccc34)c2c1 [Example 190]
155 to 160	0.01 to 10	CNCCCc1ccc2[nH]nc(S(=O)(=O)c3cccc4ccccc34)c2c1 [Example 183]
186 to 188	0.01 to 10	CNCCc1ccc2[nH]nc(S(=O)(=O)c3ccccc3)c2c1 [Example 175, N-Methyl-N-{2-[3-(phenylsulfonyl)-1H-indazol-5-yl]ethyl}amine]
135 to 138	0.01 to 10	O=S(=O)(c1cccc2ccccc12)c1n[nH]c2ccc(CCCN3CCCC3)cc12 [Example 187]
183 to 185	0.01 to 10	CC(c1ccc2[nH]nc(S(=O)(=O)c3cccc4ccccc34)c2c1)N1CCN(C)CC1 (stereo not shown) [Example 203, 5-[1-(4-Methylpiperazin-1-yl)ethyl]-3-(1-naphthylsulfonyl)-1H-indazole]
140 to 145	0.01 to 10	CCNCCCCc1ccc2[nH]nc(S(=O)(=O)c3cccc4ccccc34)c2c1 [Example 191]
160 to 163	0.01 to 10	CC(C)NCCCc1ccc2[nH]nc(S(=O)(=O)c3cccc4ccccc34)c2c1 [Example 185]
92 to 94	0.01 to 10	NCCCc1ccc2[nH]nc(S(=O)(=O)c3cccc4ccccc34)c2c1 [Example 188, {3-[3-(Naphthylylsulfonyl)-1H-indazol-5-yl]propyl}amine]
238 to 240	11 to 25	O=S(=O)(c1cccc2ccccc12)c1n[nH]c2ccc(CCCCN3CCCC3)cc12 [Example 194]
> 200	–	O=S(=O)(c1cccc2ccccc12)c1n[nH]c2ccc(CN3CCNCC3)cc12 (as salt: hydrochloride) [Example 195, 3-(1-Naphthylsulfonyl)-5-(piperazin-1-ylmethyl)-1H-indazole]
249 to 250	–	O=S(=O)(c1ccccc1)c1n[nH]c2ccc(OCCN3CCCCC3)cc12 (as salt: hydrochloride) [Example 3, 3-Benzenesulfonyl-5-(2-piperidin-1-yl-ethoxy)-1H-indazole]
> 200	–	CN(C)CCN(C)Cc1ccc2[nH]nc(S(=O)(=O)c3cccc4ccccc34)c2c1 (as salt: hydrochloride) [Example 153, N,N, N′-Trimethyl-N′-{[3-(1-naphthylsulfonyl)-1H-indazol-5-yl]methyl}ethane-1,2-diamine]
75 to 80	–	CN(C)CCCc1ccc2[nH]nc(S(=O)(=O)c3ccccc3)c2c1 (as salt: trifluoroacetate) [Example 177, N,N-Dimethyl-N-{3-[3-(phenylsulfonyl)-1H-indazol-5-yl]propyl}amine trifluoroacetate]
115 to 117	–	O=S(=O)(c1ccccc1)c1n[nH]c2c(CCNC3CC3)cccc12 (as salt: hydrochloride) [Example 172, N-{2-[3-(phenylsulfonyl)-1H-indazol-7-yl]ethyl}cyclopropanamine hydrochloride]
> 300	–	NCCOc1ccc2[nH]nc(S(=O)(=O)c3ccccc3)c2c1 (as salt: hydrochloride) [Example 13, 2-(3-Benzenesulfonyl-1H-indazol-5-yloxy)-ethylamine]
179 to 181	–	C[C@@H]1CN(Cc2ccc3[nH]nc(S(=O)(=O)c4cccc5ccccc45)c3c2)CCN1 (as salt: HCl) [Example 200]
> 200	–	CC1CN(Cc2ccc3[nH]nc(S(=O)(=O)c4cccc5ccccc45)c3c2)CC(C)N1 (stereo not shown) (as salt: HCl) [Example 198]
